# Source: patent US20070225245A1, “Viral vector driven mutant bacterial cytosine deaminase gene and uses thereof” (priority 1998, published 2007)
# Experiments:
# [1] = tested on: Intracranial D54MG Human Gliomas; assay: Survival, intracranial glioma, intratumoral Ad and systemic 5-FC; format: in vivo, SCID mice; settings: Table 7; Saline (no virus) + 5-FC
# Description: (§1) U87MG and D54MG cells (5×10^5) were stereotactically injected into the right frontal cortex of SCID mice. Tumors were established for 5 days before intratumoral injection of AdCMVCD (10^8 or 10^9 pfu/mouse). Mice were then treated IP with 5-FC (500 mg/kg bid) on days 2-9 post infection and monitored for survival. Kaplan-Meier survival curves and median and 20% survival values were calculated by standard methods.
# [2] = tested on: intracranial U251MG gliomas; assay: as above; format: in vivo, SCID mice; settings: no virus/5-FC
# Description: as §1
# Additional experiments were performed on intracranial tumors derived from all three glioma models. […] Similar results were obtained with SCID mice bearing intracranial U87MG gliomas (AdE1ACD/5-FC 84 days, AdE1ACD/saline 49 days, no virus/5-FC 57 days, p<0.01; Table II and Table 12).
# [3] = tested on: Intracranial U87MG Human Gliomas; assay: Survival, intracranial glioma, Ad, 5-FC and external beam radiation; format: in vivo, athymic nude mice
# Description: This therapeutic effect of AdCMVCD/5-FC on glioma cells could be further enhanced with concurrent fractionated ionizing external beam radiation (Table 9). U87MG cells (5×10^5) were stereotactically injected into the right frontal cortex of athymic nude mice. Tumors were established for 5 days before intratumoral injection of AdCMVCD (10^9 pfu/mouse). Mice were then treated IP with 5-FC (500 mg/kg bid) on days 2-9 post infection, irradiated with local external beam 330 cGy ^60Co radiation on days 4 and 7 post-infection, and monitored for survival. Kaplan-Meier survival curves and median and 20% survival values were calculated by standard methods.
# [4] = tested on: Intracranial U87MG gliomas; assay: Survival, intracranial glioma, HSV and 5-FC; format: in vivo, SCID mice; settings: saline plus 5-FC
# Description: Two days later, mice were begun on twice daily intraperitoneal injections of saline (1 ml) or 5-FC (500 mg/kg). Mice were followed for survival.
# Studies were undertaken to determine the efficacy of the HSV construct, M012, in in vivo murine glioma models. […] The median survival of animals receiving saline plus 5-FC was 34 days. In a similar study with the D54MG intracranial model, median survival of mice injected intratumorally with M012 and administered 5-FC was 40 days, compared to 27 days with M012 plus saline and 19 days with saline and 5-FC (FIG. 14).
# Panc2.03 xenografts = assay: Subcutaneous human pancreatic tumor xenograft, tumor growth; format: in vivo, athymic nude mice; settings: PBS plus 5-FC
# Description: Animals were injected i.t. with 1×10^7 TCID50 of AdbCD-D314A or 1×10^8 TCID50 of AdbCDwt on Days 0, 7, and 14. 5-FC was administered i.p. at 400 mg/kg qd×5/week for 3 weeks starting on Day 1. Data points represent the mean change in tumor surface area relative to Day 0 for each group of animals.
# To compare anti-tumor effects of AdbCD-D314A and AdbCDwt mediated molecular chemotherapy on established solid tumors, 7×10^6 Panc2.03 pancreatic cancer cells were injected s.c. into female athymic nude mice. Treatment was started 11 days post-tumor cell injection at the time of established tumor growth (tumors were 6-8 mm in diameter), noted as Day 0. Animals were randomly divided into groups receiving different treatments: 1) AdbCDwt plus 5-FC; 2) AdbCD-D314A plus 5-FC; 3) AdbCD-D314A plus PBS; 4) PBS plus 5-FC. Mice were injected i.t. with 1×10^8 TCID50 per tumor AdbCDwt or with 1×10^7 TCID50 AdbCD-D314A on Days 0, 7, and 14. Three groups of mice (# 1, 2 and 4) received 5-FC i.p. at 400 mg/kg on Days 1 to 5, 8 to 12, and 15 to 19.
# ASPC-1 = assay: 5-FU toxicity, MTS assay; format: cell-based; settings: Homo sapiens, ASPC1, 120 h, 5 days
# Description: (§2) Tumor cells (5×10^4) were plated in 96 well plates and allowed to adhere overnight. Cells were then incubated continuously in the presence of increasing concentrations of 5-FU (0-200 μg/ml) and assayed for toxicity using an MTS assay (Promega, Madison Wis.) after 5-days. ICx values were calculated as previously described. U251MG glioma cells were as sensitive to 5-FU as LS174T and WiDR colon carcinoma cells, while D54MG, U87MG and U118MG glioma cells and AsPC-1 pancreatic carcinoma cells were 3-fold less sensitive (Table 2).
# BXPC-3 = assay: 5-FU toxicity, MTS assay; format: cell-based; settings: Homo sapiens, 120 h, 5 days
# Description: as §2
# D54MG = assay: 5-FU toxicity, MTS assay; format: cell-based; settings: Homo sapiens, 120 h, 5 days
# Description: as §2
# LS174T = assay: 5-FU toxicity, MTS assay; format: cell-based; settings: Homo sapiens, 120 h, 5 days
# Description: as §2
# U118MG = assay: 5-FU toxicity, MTS assay; format: cell-based; settings: Homo sapiens, U-118-MG, 120 h, 5 days
# Description: as §2
# U251MG = assay: 5-FU toxicity, MTS assay; format: cell-based; settings: Homo sapiens, U-251, 120 h, 5 days
# Description: as §2
# U87MG = assay: 5-FU toxicity, MTS assay; format: cell-based; settings: Homo sapiens, U-87 MG, 120 h, 5 days
# Description: as §2
# WiDr = assay: 5-FU toxicity, MTS assay; format: cell-based; settings: Homo sapiens, 120 h, 5 days
# Description: as §2
# [5] = Saline (no virus) + 5-FC, no XRT
smiles,measurement,setting,value
"Nc1nc(=O)[nH]cc1F [5-FC, 5-fluorocytosine]",Survival 20%,[1],30
same,Survival Median,[1],29
same,median survival,[2],23 days
same,Survival 20%,[3]; Saline (no virus) + 5-FC + XRT,32
same,Survival Median,[3]; Saline (no virus) + 5-FC + XRT,31
same,Survival 20%,[3]; [5],55
same,Survival Median,[3]; [5],28
same,median survival,[4],34 days
same,mean time to tumor doubling,Panc2.03 xenografts,22 days
"O=c1[nH]cc(F)c(=O)[nH]1 [5-FU, 5-fluorouracil]",IC20,ASPC-1,0.04 µg/mL
same,IC50,ASPC-1,1.58 µg/mL
same,IC80,ASPC-1,39.4 µg/mL
same,IC20,BXPC-3,0.01 µg/mL
same,IC50,BXPC-3,0.04 µg/mL
same,IC80,BXPC-3,0.69 µg/mL
same,IC20,D54MG,0.33 µg/mL
same,IC50,D54MG,1.1 µg/mL
same,IC80,D54MG,8.53 µg/mL
same,IC20,LS174T,0.11 µg/mL
same,IC50,LS174T,0.3 µg/mL
same,IC80,LS174T,2.33 µg/mL
same,IC20,U118MG,0.24 µg/mL
same,IC50,U118MG,1.06 µg/mL
same,IC80,U118MG,61.5 µg/mL
same,IC20,U251MG,0.07 µg/mL
same,IC50,U251MG,0.38 µg/mL
same,IC80,U251MG,3.81 µg/mL
same,IC20,U87MG,0.37 µg/mL
same,IC50,U87MG,1.06 µg/mL
same,IC80,U87MG,14 µg/mL
same,IC20,WiDr,0.03 µg/mL
same,IC50,WiDr,0.13 µg/mL
same,IC80,WiDr,1.7 µg/mL
